The source of these data is ChEMBL document CHEMBL2021816, “Synthesis and acrosin inhibitory activity of methyl 5-substituted-1H-benzo[d]imidazol-2-yl carbamate derivatives” (Bioorg Med Chem Lett, 2012).

The experiment concerns the target Acrosin (Homo sapiens, UniProt P10323). As to the kind of experiment: Inhibition of acrosin in human spermatozoa assessed as effect on amidase activity after 3 hrs incubation by spectrophotometry.

By IC50 is commonly meant the point on the concentration scale where inhibition reaches its midpoint.

Acrosin, sequence (P10323 20-42 limits assumed): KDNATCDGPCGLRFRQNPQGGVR
Acrosin, sequence (P10323 43-343 limits assumed): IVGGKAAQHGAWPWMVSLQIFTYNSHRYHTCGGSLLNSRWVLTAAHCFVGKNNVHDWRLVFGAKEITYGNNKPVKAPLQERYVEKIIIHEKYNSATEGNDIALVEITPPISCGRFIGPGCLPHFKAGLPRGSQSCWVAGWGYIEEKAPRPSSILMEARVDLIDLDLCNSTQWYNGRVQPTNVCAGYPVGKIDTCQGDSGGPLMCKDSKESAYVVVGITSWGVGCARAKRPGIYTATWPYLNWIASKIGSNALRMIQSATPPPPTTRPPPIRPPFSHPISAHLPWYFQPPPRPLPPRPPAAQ

For the compound `COC(=O)Nc1nc2ccc(S(=O)(=O)NCc3ccc(Cl)c(Cl)c3)cc2[nH]1`, the IC50 stood at 4.02 mM.
Then `CCCCNS(=O)(=O)c1ccc2nc(NC(=O)OC)[nH]c2c1`, with 1.77 mM; and `COC(=O)Nc1nc2ccc(S(=O)(=O)NCc3ccccc3Cl)cc2[nH]1`, with 5.75 mM.
As for `COC(=O)Nc1nc2ccc(S(=O)(=O)NCc3ccc(Br)cc3)cc2[nH]1`, the IC50 is 1.64 mM.
For `COC(=O)Nc1nc2ccc(S(=O)(=O)NCc3ccccc3OC)cc2[nH]1` the value was 8.42 mM; for `COC(=O)Nc1nc2ccc(S(=O)(=O)NC(C)C)cc2[nH]1`, 0.47 mM; for `COC(=O)Nc1nc2ccc(S(=O)(=O)Nc3cc(C)ccc3C)cc2[nH]1`, 8.86 mM.
Turning to `COC(=O)Nc1nc2ccc(S(=O)(=O)NCc3ccc(Cl)cc3)cc2[nH]1`, the IC50 was found to be 7.52 mM.
Then `COC(=O)Nc1nc2ccc(S(=O)(=O)NCc3ccc(Cl)cc3Cl)cc2[nH]1`, with 1.27 mM; and `COC(=O)Nc1nc2ccc(S(=O)(=O)NCc3ccc(OC)c(OC)c3)cc2[nH]1`, with 11.5 mM; and `COC(=O)Nc1nc2ccc(S(=O)(=O)NCc3ccc(F)c(F)c3)cc2[nH]1`, with 1.59 mM.
Take `COC(=O)Nc1nc2ccc(S(=O)(=O)NCc3ccc(OC)cc3)cc2[nH]1`: the IC50 amounted to 3.29 mM.
Then `CCCCCCNS(=O)(=O)c1ccc2nc(NC(=O)OC)[nH]c2c1`, with 1.8 mM; and `COC(=O)Nc1nc2ccc(S(=O)(=O)N(C)Cc3ccccc3)cc2[nH]1`, with 1.25 mM; and `COC(=O)Nc1nc2ccc(S(=O)(=O)NCc3ccc(C(F)(F)F)cc3)cc2[nH]1`, with 10.7 mM.
Then `O=Cc1cc(-c2ccc(Cl)cc2Cl)on1`, with 1.7 mM; and `COC(=O)Nc1nc2ccc(S(=O)(=O)NCc3ccc(C)cc3)cc2[nH]1`, with 3.18 mM; and `COC(=O)Nc1nc2ccc(S(=O)(=O)NCc3cccc(C)c3)cc2[nH]1`, with 5.06 mM.
For `COC(=O)Nc1nc2ccc(S(=O)(=O)NCc3ccccc3F)cc2[nH]1` the value was 0.31 mM; for `COC(=O)Nc1nc2ccc(S(=O)(=O)NCc3cccc(OC)c3)cc2[nH]1`, 7.5 mM; for `COC(=O)Nc1nc2ccc(S(=O)(=O)N(CCC(C)C)CCC(C)C)cc2[nH]1`, 0.063 mM.
Take `COC(=O)Nc1nc2ccc(S(=O)(=O)NCc3ccc(F)cc3F)cc2[nH]1`: the IC50 is 1.55 mM.
As for `COC(=O)Nc1nc2ccc(S(=O)(=O)NCc3ccccc3)cc2[nH]1`, the IC50 is 1.03 mM.
In the case of `COC(=O)Nc1nc2ccc(S(=O)(=O)NCc3ccc(F)cc3)cc2[nH]1`, the IC50 came out at 2.4 mM.
Then `COC(=O)Nc1nc2ccc(S(=O)(=O)NCc3cccc(F)c3)cc2[nH]1`, with 1.81 mM.
